Results published in patent US20250302039A1, “USE OF N-SUBSTITUTED PYRROLIDONES TO PROMOTE THE PENETRATION OF AGROCHEMICAL ACTIVE AGENTS” (priority 2016, published 2025).

Legend:
Format in all cases: physicochemical
[1] = Solutions of active ingredients in N-(n-butyl)-2-pyrrolidone; settings: solvent N-(n-butyl)-2-pyrrolidone; based on the total weight of the solution
[2] = Miscibility of N-(n-butyl)-2-pyrrolidone with solvents; settings: with water, propylene glycol, polyethylene glycol, dimethylamide, Solvesso® 200 ND, alkylated vegetable oil or mineral oils
From the text: In addition, the N-substituted pyrrolidones of the formula (I) can also be combined advantageously with various water-immiscible solvents and may serve as cosolvents in solvent-containing formulations, for example in emulsion concentrates (EC), oil dispersions (OD), suspoemulsions (SE) and microemulsions (ME).

[3] = Microscopy studies: crystallization behavior after 18 hours of drying; settings: 1 g/L; 1 μL on silanized glass slide; 18 hours of drying at 25° C., 53% relative air humidity; 400× magnification
From the text: The following solutions 1) to 6) were produced:
Solution of 1 g of rynaxypyr in one liter of a mixture of acetone and distilled water at a weight ratio of acetone:distilled water of 30:70.
Solution of 1 g of rynaxypyr in one liter of a mixture of N-(n-butyl)-2-pyrrolidone and distilled water at a weight ratio of N-(n-butyl)-2-pyrrolidone:distilled water of 30:70.
Solution of 1 g of emamectin benzoate in one liter of a mixture of acetone and distilled water at a weight ratio of acetone:distilled water of 30:70.
Solution of 1 g of emamectin benzoate in one liter of a mixture of N-(n-butyl)-2-pyrrolidone and distilled water at a weight ratio of N-(n-butyl)-2-pyrrolidone:distilled water of 30:70.
Solution of 1 g of abamectin in one liter of a mixture of acetone and distilled water at a weight ratio of acetone:distilled water of 30:70.
Solution of 1 g of abamectin in one liter of a mixture of N-(n-butyl)-2-pyrrolidone and distilled water at a weight ratio of N-(n-butyl)-2-pyrrolidone:distilled water of 30:70.
The procedure as described hereinafter was followed with solutions 1) to 6) (see steps A) to C)): • A) 1 μL of the above-described solutions 1) to 6) in each case was applied to silanized glass microscope slides. • B) The solutions were left to stand on the microscope slides at a temperature of 25° C. and 53% relative air humidity over 18 hours, in the course of which drying took place. • C) Thereafter, the microscope slides were assessed and photos were taken at the original edge of the droplets with 400-fold magnification.
The photos for the active agrochemical ingredient abamectin are shown in FIG. 2A and FIG. 2B, those for the active agrochemical ingredient rynaxapyr in FIG. 3A and FIG. 3B, and those for the active agrochemical ingredient emamectin benzoate in FIG. 4A and FIG. 4B.

Molecule | amount of active ingredient in solutions prepared with N-(n-butyl)-2-pyrrolidone [1] | miscibility with solvents [2] | crystallization behavior in N-(n-butyl)-2-pyrrolidone/water (30:70) solution [3] | crystallization behavior in acetone/water (30:70) solution [3]
OC(Cc1ccccc1Cl)(Cn1nc[nH]c1=S)C1(Cl)CC1 (centres unmarked) [prothioconazole] | greater than 35 % by weight |  |  | 
CCCCN1CCCC1=O [N-(n-Butyl)-2-pyrrolidone, N-(n-butyl)-2-pyrrolidone] |  | miscible in all ratios |  | 
CNC(=O)c1cc(Cl)cc(C)c1NC(=O)c1cc(Br)nn1-c1ncccc1Cl [rynaxypyr] |  |  | remaining dissolved | crystallized out
emamectin benzoate |  |  | remaining dissolved | crystallized out
abamectin |  |  | remaining dissolved | crystallized out
